Data: US12116421B2, “Peptide-based Dopa containing adhesive gels” (KING ABDULLAH UNIVERSITY OF SCIENCE AND TECHNOLOGY, priority 2020, dated 2024)
Where a SMILES comes first, the peptide text is derived from it. [ ]: non-standard residue; d: D form. Dopa = N[C@@H](Cc1ccc(O)c(O)c1)C(=O)O; Cha = N[C@@H](CC1CCCCC1)C(=O)O

What was measured:
[1] = Rheology of peptide hydrogels (storage and loss modulus); type: physicochemical; details: 15 mg/mL in 1×PBS
Description: In one embodiment, the structural characteristics of these peptides also influence the rheological properties of the peptides, such as stiffness. The stiffness of the peptide hydrogels was assessed by rheology measurements. The five peptides, DoIIZK, IIZDoK, IIZKDo, IIZ(KDo)2 and IIZ(KDo)3 were dispersed in phosphate-buffered saline (1×PBS) to final concentrations of […]. Only DoIIZK and IIZKDo formed transparent hydrogels after preparation of gels onto rheology glass rings; the rest of the peptides formed grey/opaque hydrogels. This difference implies that the fibrils of peptides DoIIZK and IIZKDo had sufficient time to disperse and spread in solution before entrapping water to gel, while peptides IIZDoK, IIZ(KDo)2 and IIZ(KDo)3 gelled quickly upon fibril formation. Therefore, the rheological properties of the peptides were measured at the concentration of 15 mg/ml. […] The storage modulus and loss modulus reflect the stress response of the hydrogel in oscillatory shear. […]
Peptide hydrogels were prepared by weighing the appropriate peptide amount of the lyophilized peptide powder in 2 mL glass-vials. […] Rheological analysis mechanical properties of the formed gels were assessed by using the TA Ares-G2 Rheometer with an 8 mm titanium parallel-plate geometry. […] Time-sweep, frequency-sweep, and amplitude-sweep, were measured for each sample to explore the mechanical stiffness of the gels. […]

[2] = test system: Acropora hemprichii fragments; test: Adhesion of bigger coral fragments with IIZKDo glue to tile and 3D printed coral; type: in vivo
Excerpt: The donor corals Acropora spp. shown in FIG. 36 were collected from the Red Sea.
In one embodiment, IIZKDo was used for the adhesion of bigger and heavier coral fragments to the 3D printed coral, which would be the situation in coral reef restoration. In gluing larger coral fragments, two different type of Acropora hemprichii were glued: some big fragments with an irregular base, and some smaller pieces with smooth base.
In one embodiment, the big fragments with irregular base and the smaller pieces with smooth base were attached to a tile. The cut small pieces of coral were attached to a special sheet for macrofragmentation so that these fragments further grew on the surface of the spreadsheet, in order to obtain fragments with a base smooth enough to stick them on the tile. After 15 days, the big fragments were still fully attached to the tile, whereas the small, flat fragments were all detached.
After verifying the best performing glue among the three DoIIZK, IIZDoK, IIZKDo, IIZKDo was selected to glue some coral fragments onto 3D printed PLA corals used for coral reef restoration project. Using a diagonal plier, the tip of each branch-like part (ca. 1.5-2.5 cm in length) of a donor Acropora hemprichii coral was gently cut to minimize damage to the coral itself. FIG. 36 illustrates the parts being cut from the donor coral. […] The initial donor coral was moved from a large shallow aquarium (230×148×140 cm) supplied with running seawater to a relatively shallow aquarium also outfitted with running seawater. While preparing the glue, the cut fragments were kept in a small shallow aquarium (72×54×29 cm) filled with sea water to not harm them until use. In the meantime, the glue was prepared by mixing IIZKDo 40 mg/mL in water and the mixture was poured on a glass slide and allowed to rest for about 5 minutes to equilibrate, as shown in FIG. 42. The cut coral fragment was removed from the aquarium, and cleaned, while moisture was allowed to absorb from the cut section with sterilized filter paper. The ceramic tile was cleaned twice with water, and then sea water to mimic the adhesion of the glue to a wet, salty surface.
A few drops of IIZKDo was applied at the surface of the cut section of the coral fragment, and the fragment was immediately glued at the surface of the tile, as shown in FIG. 43. As a control, some smaller fragments with smooth surface Acropora hemprichii, were glued using the same peptide-based glue.
The tile with attached coral fragments was placed in the original shallow aquarium (230×148×140 cm) to keep the coral in its natural environment as shown in FIG. 44 and checked after 3 days. Only the big fragments were still sticking on the tile. Therefore, only big fragments were then glued to the 3D printed poly-lactic acid (PLA) printed coral structure primed with MakerBot, which is a 3D printer based on fused deposition modeling method and grew in harsher conditions, such as in the presence of algae etc.

[3] = Big fragments with irregular base, n = 5, tile
[4] = Flat fragments with smooth base, n = 3, tile

| Structure (SMILES) | Storage and Loss moduli, times lower than DoIIZK and IIZKDo [1] | Storage modulus ([1]; 25° C.) | Survival after 15 days in the aquarium [2, 3] | Survival after attachment [2, 3] | Survival after 15 days in the aquarium [2, 4] | Survival after attachment [2, 4] | time coral fragments kept glued to a 3D printed substrate ([2]; seawater) |
| --- | --- | --- | --- | --- | --- | --- | --- |
| CC[C@H](C)[C@H](NC(C)=O)C(=O)N[C@H](C(=O)N[C@@H](CC1CCCCC1)C(=O)N[C@@H](Cc1ccc(O)c(O)c1)C(=O)N[C@@H](CCCCN)C(N)=O)[C@@H](C)CC [IIZDoK, Ac-Ile-Ile-Cha-Dopa-Lys-NH2] (Ac-II[Cha][Dopa]K-NH2) | roughly 10 times | 2-5 kPa | – | – | – | – | – |
| CC[C@H](C)[C@H](NC(C)=O)C(=O)N[C@H](C(=O)N[C@@H](CC1CCCCC1)C(=O)N[C@@H](CCCCN)C(=O)N[C@@H](Cc1ccc(O)c(O)c1)C(N)=O)[C@@H](C)CC [IIZKDo, Ac-Ile-Ile-Cha-Lys-Dopa-NH2] (Ac-II[Cha]K[Dopa]-NH2) | – | – | 5 | 5 | 0 | 3 | several months |
